From patent US20080139463A1, “Use Of [D-Meala]3-[Etval]4-Cyclosporin For The Treatment Of Hepatitis C Infection And Pharmaceutical Composition Comprising Said [D-Meala]3-[Etval]4-Cyclosporin” (priority 2005, published 2008)
In brackets after ≈: the same amount, converted by molar mass.

Key:
[1] = MTT assay of cytostatic/cytotoxic effect in Huh 5-2 cells; conditions: human
Excerpt: Cell density and cytostatic effects were estimated in parallel cultures in regular 96-well plates (Beckton-Dickinson) using the MTT assay (CellTiter 96® AQueous Non-Radioactive Cell Proliferation Assay, Promega). In this assay, 3-(4,5-dimethylthiazol-2-yl)-5-(3-carboxymethoxy-phenyl)-2-(4-sulfophenyl)-2H-tetrazolium (MTS) is bioreduced to a formazan that is quantitated at 498 nm in a plate reader. Formazan production is directly correlated with number of life cells.
(§1) Results from these experiments permitted calculation of EC50 for the different cyclosporins, which is the effective concentration required to inhibit HCV replicon replication by 50%, and of CC50, which is the concentration required that inhibits the proliferation of exponentially growing cells by 50%, and a selectivity index SI, which is the ratio between CC50 and EC50.

[2] = biological target: T1, human recombinant cyclophilin A (Homo sapiens, UniProt P62937); assay: PPlase activity of cyclophilin A, tight binding inhibitor fit (Garcia-Echverria et al.); assay type: biochemical; conditions: for Et (total enzyme concentration): fit parameter of tight binding equation
T1 construct: purchased Sigma
T1 sequence (P62937 whole entry): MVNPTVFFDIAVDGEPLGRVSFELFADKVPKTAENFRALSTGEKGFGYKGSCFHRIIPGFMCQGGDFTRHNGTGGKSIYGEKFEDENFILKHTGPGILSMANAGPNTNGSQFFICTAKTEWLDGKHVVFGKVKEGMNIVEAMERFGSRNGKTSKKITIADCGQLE
Description: Commercial human recombinant cyclophilin A (Sigma) was used in the assays. PPlase activity of cyclophilins was determined using a chymotrypsin-coupled spectrophotometric assay according to Garcia-Echverria et al. (BBRC, 191, (1993), 70-75). This method is based on the high trans selectivity of chymotrypsin for peptides of the type N-succinyl-ala-ala-pro-phe-p-nitroanilide. The peptides cleavage liberated the para-nitroaniline moiety that could be detected and quantitated at 390 nm. The hydrolysis of the cis form was limited by the rate of cis-trans isomerisation carried out by cyclophilin A. The peptide was made up in a solution of […] LiCl in 2,2,2-trifluoroethanol at 470 mM to enhance the cis conformer peptides population. The assay was performed on the split beam spectrophotometer and the water bath was set at 5° C. Cyclophilin A (7500 pmol/mg total enzyme concentration; Sigma) were dissolved at 20 nM in a buffer (35 mM HEPES and 0.26 mg/ml chymotrypsin (specific activity 50 units/mg), pH 7.8 with KOH) and were incubated for 6 minutes at room temperature followed by 54 minutes in the water bath. […] Then 3.5 ml of the incubated cyclophilin was added to the sample cuvette. […] Peptide was added at 25 μM to initiate the reaction and the change in absorbance was monitored at 10 data points per second. As a control, rates were also determined for a parallel reaction that lacked cyclophilin. These blank rates of peptide hydrolysis (i.e. in the absence of cyclophilin) were subtracted from rates in the presence of cyclophilin A.
The initial rates obtained from the PPlase assays were analysed by first order regression analysis by using first order transformation of the traces of the time course of the change in the absorbance at 390 nm. Total enzyme concentration (Et), the inhibitor dissociation constant (Ki) and the rate constant for the rate limiting reaction was calculated with the software FigSyS (2003, Biosoft) by fitting the data obtained from the regression analysis in the tight binding inhibitor multiprotein equation.
v=k*Et*P−k*(−b−sqrt(b*b−4*c))/2
where b is defined as b=−(Et*P+I+Ki) and c is c=Et*P*I. Once Et, Ki and k were calculated by the computer for a given set of data, a graphic representation of the data was plotted and the line fitted to the points assuming tight inhibitor binding to a single protein, defined by the following equations:
v=K*Et*P−K(B−sqrt(B*B−4*C))/2
where B=Et*P+I+Ki and C=Et*P*I.

[3] = system: HCV replicon in MH-14 cells; conditions: cited from earlier work; for HCV RNA accumulation inhibited: Northern blot and quantitative RT-PCR, MH-14 cells
CD4^+ PBMCs = assay: Mixed lymphocyte reaction, [3H]-thymidine incorporation; assay type: cell-based; conditions: for % Stimulation (relative): cyclosporin 1 μg/ml, five days; for immunosuppressive activity (interpretation of Table 2): mixed lymphocyte reaction
Description: In this assay, cyclosporins were dissolved in ethanol (10 mg/ml). Freshly isolated CD4^+ PBMCs from two healthy donors were mixed subsequent to inactivation by irradiation of one of the populations (stimulator cells; S). […] R) was determined by [^3H]-thymidine incorporation. The assay was conducted reciprocally with the two cell populations, each being inactivated and stimulated in turn. Stimulation (%) of responder cells was calculated by the formula: […] Sample refers to a mixture of stimulator and responder cells. Background represents a control in which only stimulator cells are mixed.

[4] = system: luciferase-containing HCV minireplicon in Huh 5-2 cells
Description: (§2) Assays used Huh 5-2 cells that contained a bicistronic RNA encoding a firefly luciferase-ubiquitin-neomycin phosphotransferase fusion protein and HCV proteins NS3-5. The viral sequences originated from an HCV virus of genotype 1b. Cells were cultured in RPMI 1640 medium (Gibco) supplemented with 10% fetal calf serum, 2 mM glutamine (Life Technologies), 1× non-essential amino acids (Life Technologies), 100 u/ml penicillin, 100 μg/ml streptomycin and 250 μg/ml G418 (Geneticin, Life Technologies) at 37° C. and 5% CO2. For antiviral (replication) assays, cells were seeded at a density of 7000 cells/well in 96-well View Plates™ (Packard) in the same medium except for G418. After a 24-h incubation, medium was removed, serial dilutions of test compounds in medium were added, and cells were incubated for an additional 72 h.
Antiviral effects were estimated either by luciferase assay or quantitative RT-PCR. To carry out luciferase assays, medium was removed, and cells were washed with PBS. Subsequent to lysis in 50 μl of Glo-lysis buffer (Promega) for 15 min, 50 μl of Stead-Glo Luciferase Assay Reagent (Promega) were added to cell lysates. Luciferase activity was measured using a luminometer, and the signal from each test well was expressed as a percentage of the signal measured in wells of cultures not exposed to a test compound. […]

[5] = system: HCV replicon in Huh 5-2 cells; conditions: EC50 derived from RNA titers by quantitative RT-PCR; asterisk = lower of two independently determined values
Description: as §2
The fluorogenic probe was 5′-[…]-3′.
as §1

[6] = system: Jc1-Luc virus (full-length chimeric genome between HCV strains J6 and JFH1); assay: Antiviral luciferase assay in hepatoma cells infected with recombinant HCV; assay type: cell-based; conditions: infected Huh-7-Lunet and Huh-7.5 cells, 72 hours, FIGS. 1 and 2
Description: The method used hepatoma cells that had been infected with an infectious full length chimeric HCV construct or the same virus that was modified to carry a luciferase receptor gene.
Infectious HCV viruses of full-length chimeric genome between HCV strains J6 and JFH1 (Jc1) were used to inoculate the hepatoma cells of the assays. The construct of Jc1 virus was also modified to obtain a bicistronic genome carrying a luciferase reporter gene (Jc1-Luc).
Assays used either Huh-7-Lunet or Huh-7.5 cells (Lohmann et al., Science 285(5424), (1999), 110-113). Cells were grown in Dulbecco's modified Eagle's Medium (DMEM; Gibco) supplemented with 10% heat-inactivated fetal bovine serum (FCS) (Integro), 1× non-essential amino acids (Gibco), 100 IU/ml penicillin (Gibco), 100 μg/ml streptomycin (Gibco) or 25 μg/ml hygromycin (Gibco) for Huh-mono cells at 37° C. and 5% CO2. For antiviral (replication) assays, Huh-7-Lunet and Huh-7.5 cells were seeded at a density of 2×104 or 4×10^4 cells per well of a 12-well plate. […]
The inhibition of viral replication were estimated by luciferase assay. […] Firefly luciferase activity was measured according to Krieger et al. (J Virol, 75(10), (2001), 4614-4624). […] Finally, luminescence was measured by using a Lumat LB9507 luminometer (Berthold) for 20 samples.

[7] = Initial phase I clinical studies, safety of oral doses; assay type: in vivo; conditions: oral doses of 50 to 1600 mg; not dose-related
Description: Initial phase I clinical studies were carried out to assess the safety of oral doses of [D-MeAla]^3-[EtVal]^4-CsA, and to determine the pharmacokinetic profile and safety profile of the drug substance. […] These side effects were not dose-related.

[8] = system: HCV replicon in Huh-9-13 cells; assay: HCV replicon clearance and rebound in Huh-9-13 cells; assay type: cell-based; conditions: 0.5 or 1 μg/ml for 7 consecutive passages, then G418 1000 μg/ml for 2 passages; FIG. 3
Description: Assays used Huh-9-13 cells, human hepatoma cells (Huh-7) (Lohmann et al., Science 285(5424), (1999), 110-113) Cells were grown in the usual complete medium DMEM without G418 pressure.
RT-PCR were performed on extracts of viral RNA of samples taken at different passage points. The forward and reverse primers used were 5′-[sequence]-3′ and 5′-[sequence]-3′, respectively. The fluorogenic probe was 5′-[sequence]-3′. As an internal control, a plasmid containing part of the neomycin phosphotransferase gene sequence was used. Results were analysed and expressed as a quantity of replicon RNA (ng) per 1'000 cells and used to draft a graph.

Row | Compound | CC50 [1] [µg/mL] | k (rate constant for the rate limiting reaction) ([2]; cyclophilin A) [s⁻¹] | Ki ([2]; cyclophilin A, inhibitor 2-50 nM) [nM] | Et (total enzyme concentration) [2] [pmol/mg] | effectiveness in reducing HCV RNA titer ([3]; compared with CsA) | % Stimulation (relative) (CD4^+ PBMCs; co-culture R1 × S2) [%] | % Stimulation (relative) (CD4^+ PBMCs; co-culture R2 × S1) [%] | immunosuppressive activity (interpretation of Table 2) (CD4^+ PBMCs) | EC50 (μg/ml) +/− Std. Dev. ([4]; luciferase assay, Huh 5-2 cells, 72 h) [µg/mL] | Selectivity index ([4]; ratio between CC50 and EC50, luciferase and MTT assays) | SI values [5] | HCV RNA accumulation inhibited [3] | antiviral activity [6] | CC50 ([1]; Huh 5-2 cells) [µg/mL] | side effects [7] | outcome of treated cultures in the presence of G418 (rebound phase) [8] | HCV RNA titer reduction ([3]; 1 μg/ml, 7-day exposure)
1 | C/C=C/C[C@@H](C)[C@@H](O)[C@H]1C(=O)N[C@@H](CC)C(=O)N(C)CC(=O)N(C)[C@@H]([C@@H](C)CC)C(=O)N[C@@H](C(C)C)C(=O)N(C)[C@@H](CC(C)C)C(=O)N[C@@H](C)C(=O)N[C@H](C)C(=O)N(C)[C@@H](CC(C)C)C(=O)N(C)[C@@H](CC(C)C)C(=O)N(C)[C@@H](C(C)C)C(=O)N1C [[MeIle]^4-CsA] | 14 (≈ 11.6 µM) | 0.17 ± 0.0068 | 2.11 ± 0.32 | 7500 | about equally as effective as CsA | 84 | 75 | essentially devoid of immunosuppressive activity | 0.22 (≈ 0.183 µM) | 64 | 73 | – | – | – | – | – | –
2 | C/C=C/C[C@@H](C)C(=O)[C@H]1C(=O)N[C@@H](C(C)C)C(=O)N(C)CC(=O)N(C)[C@@H](CC(C)C)C(=O)N[C@@H](C(C)C)C(=O)N(C)[C@@H](CC(C)C)C(=O)N[C@@H](C)C(=O)N[C@H](C)C(=O)N(C)[C@@H](CC(C)C)C(=O)N(C)[C@@H](CC(C)C)C(=O)N(C)[C@@H](C(C)C)C(=O)N1C [PSC 833] | – | – | – | – | – | – | – | – | – | – | – | not | – | – | – | – | –
3 | C/C=C/C[C@@H](C)[C@@H](O)[C@H]1C(=O)N[C@@H](CC)C(=O)N(C)[C@H](C)C(=O)N(CC)[C@@H](C(C)C)C(=O)N[C@@H](C(C)C)C(=O)N(C)[C@@H](CC(C)C)C(=O)N[C@@H](C)C(=O)N[C@H](C)C(=O)N(C)[C@@H](CC(C)C)C(=O)N(C)[C@@H](CC(C)C)C(=O)N(C)[C@@H](C(C)C)C(=O)N1C [[D-MeAla]^3-[EtVal]^4-CsA] | – | 0.16 ± 0.0074 | – | 7500 | – | – | – | essentially devoid of immunosuppressive activity | – | – | – | – | dose-dependent antiviral activity | > 27 | Mild and short-lived side effects were observed including nausea, vomiting, abdominal pain, mild headaches | the cultures died | –
4 | Cyclosporin A [CsA] | – | 0.17 ± 0.0069 | – | 7500 | – | – | – | – | – | – | – | inhibited | dose-dependent antiviral activity | – | – | – | about 200 fold
